Assay results reported in patent publication US8796244B2, “Imidazopyridine derivatives as inhibitors of receptor tyrosine kinases” (Astex Therapeutics Ltd, priority 2008, dated 2014).
Structures can show the parent of a compound that is named as a salt. Where two headings read alike, the source gives them in different places.

What was measured:
[1] = tested on: parental wild-type Ba/F3 cells; experiment: Ba/F3 (WT) cell proliferation assay (Alamar Blue); format: cell-based; details: Mus musculus
[2] = tested on: LP-1 cell line (FGF-1/Heparin induced pERK); experiment: Cell-based pERK ELISA, LP-1 cells; details: Homo sapiens; for IC50: LP-1, read-out: LP-1 pERK ELISA (μM); for inhibition at 10 µM: LP-1, read-out: LP-1 pERK ELISA, % inhibition
[3] = BaF3, read-out: BaF3 WT prolif, % inhibition
[4] = BaF3, 72 h, read-out: BaF3 WT prolif (μM)
[5] = BaF3, 72 hours, Alamar Blue, read-out: BaF3 WT prolif

SMILES	inhibition at 10 µM [1, 3]	IC50 [2]	IC50 [1, 4]	other results
Cc1ccc(-c2ccn3c(-c4cncc(NC(=O)NCC(F)(F)F)c4)cnc3c2)nn1 [Example 21, 1-{5-[7-(6-Methylpyridazin-yl)imidazo[1,2-a]pyridin-3-yl]pyridin-3-yl}-3-(2,2,2-trifluoroethyl)urea]	0%	0.41 µM	–	–
Cc1cnc(N)nc1-c1ccn2c(-c3cccc(NC(=O)NCC(F)(F)F)c3)cnc2c1 [Example 176]	59%	0.33 µM	–	–
O=C(NCC(F)(F)F)Nc1cccc(-c2cnc3cc(-c4cnc(N5CC(F)(F)C5)nc4)ccn23)c1 [Example 87, 1-(3-{7-[2-(3,3-Difluoro-azetidin-1-yl)-pyrimidin-5-yl]-imidazo[1,2-a]pyridin-3-yl}-phenyl)-3-(2,2,2-trifluoro-ethyl)-urea bis-trifluoroacetate]	–	0.072 µM	0.41 µM	–
COc1ccc(-c2ccn3c(-c4cccc(NC(=O)NCC(F)(F)F)c4)cnc3c2)nn1 [Example 51, 1-{3-[7-(6-Methoxy-pyridazin-3-yl)-1,7-imidazo[1,2-a]pyridin-3-yl]-phenyl}-3-(2,2,2-trifluoro-ethyl)-urea]	10%	0.015 µM	–	–
NC(=O)Nc1cccc(-c2cnc3cc(-c4ccc(F)cc4)ccn23)c1 [Example 154, {3-[7-(4-Fluoro-phenyl)-imidazo[1,2-a]pyridin-3-yl]-phenyl}-urea]	–	0.086 µM	–	IC50 [1, 5]: 5.6 µM
O=C(NCC(F)(F)F)Nc1cccc(-c2cnc3cc(-c4nc5c(s4)CCC5)ccn23)c1 [Example 8, 1-{3-[7-(5,6-Dihydro-4H-cyclopentathiazol-2-yl)imidazo[1,2-a]pyridin-3-yl]-phenyl}-3-(2,2,2-trifluoroethyl)urea]	–	0.012 µM	–	IC50 [1, 5]: 0.45 µM
Cc1cnc(-c2ccn3c(-c4cccc(NC(=O)NCC(F)(F)F)c4)cnc3c2)nc1N [Example 175]	–	0.077 µM	–	IC50 [1, 5]: 10 µM
Cc1ccnc(-c2ccn3c(-c4cccc(NC(=O)NCC(F)(F)F)c4)cnc3c2)n1 [Example 59, 1-{3-[7-(4-Methyl-pyrimidin-2-yl)-imidazo[1,2-a]pyridin-3-yl]-phenyl}-3-(2,2,2-trifluoro-ethyl)-urea hydrochloride]	–	0.1 µM	5.1 µM	–
O=C(NCC(F)(F)F)Nc1cccc(-c2cnc3cc(-c4ccnnc4)ccn23)c1 [Example 88, 1-[3-(7-Pyridazin-4-yl-imidazo[1,2-a]pyridin-3-yl)-phenyl]-3-(2,2,2-trifluoro-ethyl)-urea formate]	0%	–	–	inhibition at 10 µM [2]: 16%
O=C(NCC(F)(F)F)Nc1cccc(-c2cnc3cc(-c4cnn(C5CCNC5)c4)ccn23)c1 (stereo not drawn) [Example 45, 1-{3-[7-(1-Pyrrolidin-3-yl-1H-pyrazol-4-yl)-imidazo[1,2-a]pyridin-3-yl]-phenyl}-3-(2,2,2-trifluoro-ethyl)-urea]	0%	0.35 µM	–	–
O=C(NCC(F)(F)F)Nc1cccc(-c2cnc3cc(-c4cnn(C5CNC5)c4)ccn23)c1 [Example 37, 1-{3-[7-(1-Azetidin-3-yl-1H-pyrazol-4-yl)-imidazo[1,2-a]pyridin-3-yl]phenyl}-3-(2,2,2-trifluoroethyl)urea]	3.3%	0.29 µM	–	–
O=C(NCC(F)(F)F)Nc1cccc(-c2cnc3cc(-c4ccc(N5CCCCC5)nc4)ccn23)c1 [Example 49, 1-{3-[7-(3,4,5,6-Tetrahydro-2H-[1,2′]bipyridinyl-5′-yl)-imidazo[1,2-a]pyridin-3-yl]-phenyl}-3-(2,2,2-trifluoro-ethyl)-urea hydrochloride]	–	0.017 µM	0.29 µM	–
Cn1cncc1C#Cc1ccn2c(-c3cccc(NC(=O)NCC(F)(F)F)c3)cnc2c1 [Example 13B, 1-{3-[7-(3-Methyl-3H-imidazol-4-ylethynyl)-imidazo[1,2-a]pyridin-3-yl]-phenyl}-3-(2,2,2-trifluoro-ethyl)-urea dihydrochloride]	44%	0.031 µM	–	–
CCNC(=O)Nc1cccc(-c2cnc3cc(-c4ncccn4)ccn23)c1 [Compound 280]	–	0.35 µM	–	inhibition at 3 µM [1, 3]: 74%
COc1cncc(-c2ccn3c(-c4cccc(NC(=O)NCC(F)(F)F)c4)cnc3c2)n1 [Example 90, 1-{3-[7-(6-Methoxy-pyrazin-2-yl)-imidazo[1,2-a]pyridin-3-yl]-phenyl}-3-(2,2,2-trifluoro-ethyl)-urea formate]	–	0.092 µM	0.76 µM	–
O=C(NCC(F)(F)F)Nc1cccc(-c2cnc3cc(-c4ccc(=O)n(CCO)n4)ccn23)c1 [Example 126, 1-(3-{7-[1-(2-Hydroxy-ethyl)-6-oxo-1,6-dihydro-pyridazin-3-yl]-imidazol[1,2-a]pyridin-3-yl}-phenyl)-3-(2,2,2-trifluoro-ethyl)-urea]	3.7%	0.98 µM	–	–
Cc1cnnc(-c2ccn3c(-c4cccc(NC(=O)NCC(F)(F)F)c4)cnc3c2)c1 [Example 137, 1-{3-[7-(5-Methyl-pyridazin-3-yl)-imidazo[1,2-a]pyridin-3-yl]-phenyl}-3-(2,2,2-trifluoro-ethyl)-urea]	23%	0.034 µM	–	–

SMILES	inhibition at 10 µM [1, 3]	IC50 [2]	IC50 [1, 4]	other results
O=C(NCC(F)(F)F)Nc1cccc(-c2cnc3cc(-c4ccc(Cl)nn4)ccn23)c1 [Example 33, 1-{3-[7-(6-Chloropyridazin-3-yl)-imidazo[1,2-a]pyridin-3-yl]phenyl}-3-(2,2,2-trifluoroethyl)urea]	–	0.057 µM	–	IC50 [1, 5]: 0.32 µM
CCOc1cccc(-c2ccn3c(-c4cccc(NC(=O)NCC(F)(F)F)c4)cnc3c2)n1 [Example 99, 1-{3-[7-(6-Ethoxy-pyridin-2-yl)-imidazo[1,2-a]pyridin-3-yl]-phenyl}-3-(2,2,2-trifluoro-ethyl)-urea bis-hydrochloride]	–	0.063 µM	0.32 µM	–
NC(=O)Nc1cccc(-c2cnc3cc(-c4ncc(F)c(N)n4)ccn23)c1 [Example 167]	0%	–	–	inhibition at 10 µM [2]: 60%
O=C(NCC(F)(F)F)Nc1cccc(-c2cnc3cc(-c4nnc(C(F)(F)F)s4)ccn23)c1 [Example 17, 1-(2,2,2-Trifluoroethyl)-3-{3-[7-(5-trifluoromethyl[1,3,4]thiadiazol-2-yl)-imidazo[1,2-a]pyridin-3-yl]phenyl}urea]	–	0.044 µM	–	IC50 [1, 5]: 0.056 µM
CN1CCN(c2ncc(-c3ccn4c(-c5cccc(NC(=O)NCC(F)(F)F)c5)cnc4c3)cn2)CC1 [Example 79, 1-(3-{7-[2-(4-Methyl-piperazin-1-yl)-pyrimidin-5-yl]-imidazo[1,2-a]pyridin-3-yl}-phenyl)-3-(2,2,2-trifluoro-ethyl)-urea bis-formate]	–	0.035 µM	0.4 µM	–
O=C(NCC(F)(F)F)Nc1cccc(-c2cnc3cc(-c4ncccn4)ccn23)c1 [Example 114, 1-{3-[7-(Pyrimidin-2-yl)-imidazo[1,2-a]pyridin-3-yl]-phenyl}-3-(2,2,2-trifluoro-ethyl)-urea hydrochloride]	–	0.047 µM	0.65 µM	–
O=C(NCC(F)(F)F)Nc1cccc(-c2cnc3cc(-c4nccc(C(F)(F)F)n4)ccn23)c1 [Example 46, 1-(2,2,2-Trifluoro-ethyl)-3-{3-[7-(4-trifluoromethyl-pyrimidin-2-yl)-imidazo[1,2-a]pyridin-3-yl]-phenyl}-urea hydrochloride]	27%	0.18 µM	–	–
CN1CCC(O)(C#Cc2ccn3c(-c4cccc(NC(=O)NCC(F)(F)F)c4)cnc3c2)CC1 [Example 65, 1-{3-[7-(4-Hydroxy-1-methyl-piperidin-4-ylethynyl)-imidazo[1,2-a]pyridin-3-yl]-phenyl}-3-(2,2,2-trifluoro-ethyl)-urea formate]	8.3%	1.3 µM	–	–
O=C(NCC(F)(F)F)Nc1cccc(-c2cnc3cc(-c4cnn(C5CCOC5)c4)ccn23)c1 (stereo not drawn) [Example 47, 1-(3-{7-[1-(Tetrahydro-furan-3-yl)-1H-pyrazol-4-yl]-imidazo[1,2-a]pyridin-3-yl}-phenyl)-3-(2,2,2-trifluoro-ethyl)-urea hydrochloride]	–	0.0098 µM	0.68 µM	–
Nc1nc(-c2ccn3c(-c4cccc(NC(=O)NCC(F)(F)F)c4)cnc3c2)ncc1F [Example 102, 1-{3-[7-(4-Amino-5-fluoro-pyrimidin-2-yl)-imidazo[1,2-a]pyridin-3-yl]-phenyl}-3-(2,2,2-trifluoro-ethyl)-urea bis-hydrochloride]	–	0.0939 µM	2.3 µM	–
CNc1ncc(-c2ccn3c(-c4cccc(NC(=O)NCC(F)(F)F)c4)cnc3c2)cc1C [Example 161]	–	0.01 µM	–	IC50 [1, 5]: 0.15 µM
CN(C)c1ccc(-c2ccn3c(-c4cccc(NC(=O)NCC(F)(F)F)c4)cnc3c2)nn1 [Example 113, 1-{3-[7-(6-Dimethylamino-pyridazin-3-yl)-imidazo[1,2-a]pyridin-3-yl]-phenyl}-3-(2,2,2-trifluoro-ethyl)-urea formate]	–	0.016 µM	1.4 µM	–
COc1cc(-c2ccn3c(-c4cccc(NC(=O)NCC(F)(F)F)c4)cnc3c2)ncn1 [Example 183]	–	0.028 µM	–	IC50 [1, 5]: 0.29 µM
O=C(NCC(F)(F)F)Nc1cccc(-c2cnc3cc(-c4ccc(NCCO)nn4)ccn23)c1 [Example 67, 1-(3-{7-[6-(2-Hydroxy-ethylamino)-pyridazin-3-yl]-imidazo[1,2-a]pyridin-3-yl}-phenyl)-3-(2,2,2-trifluoro-ethyl)-urea]	–	0.84 µM	–	IC50 [1, 5]: 2.1 µM
CN1CCC(n2cc(-c3ccn4c(-c5cccc(NC(=O)NCC(F)(F)F)c5)cnc4c3)cn2)CC1 [Example 6, 1-(3-{7-[1-(1-Methyl-piperidin-4-yl)-1H-pyrazol-4-yl]imidazo[1,2-a]pyridin-3-yl}phenyl)-3-(2,2,2-trifluoroethyl)urea]	–	0.0092 µM	–	IC50 [1, 5]: 0.87 µM
O=C(NCC(F)(F)F)Nc1cccc(-c2cnc3cc(-c4ncc(F)cn4)ccn23)c1 [Example 60, 1-{3-[7-(5-Fluoro-pyrimidin-2-yl)-imidazo[1,2-a]pyridin-3-yl]-phenyl}-3-(2,2,2-trifluoro-ethyl)-urea hydrochloride]	0%	0.087 µM	–	–
